Common to all, as to type: biochemical
Experiment [1] has as its target T1, GST-TIE2 (intracellular domains of human TIE2) (Homo sapiens, UniProt Q02763).
T1 construct: made in house
The experiment in a line: TIE-2 Enzyme Assay (TIE2-E2), LANCE method. The conditions noted are these: for IC50: read-out: TIE2 PIC50 TIE2-E2 assay. An excerpt:
TIE-2 Enzyme Assay (TIE2-E2
The TIE-2 enzyme assay uses the LANCE method (Wallac) and GST-TIE2, baculovirus-expressed recombinant constructs of the intracellular domains of human TIE2 (amino acids 762–1104, GenBank Accession # L06139) tagged by GST). The method measures the ability of the purified enzymes to catalyse the transfer of the γ-phosphate from ATP onto tyrosine residues in a biotinylated synthetic peptide, D1–15 (biotin-C6-LEARLVAYEGWVAGKKKamide). This peptide phosphorylation is detected using the following procedure: for enzyme preactivation, GST-TIE2 is incubated for 2 hours at room temperature with 80 μM ATP, 10 mM MgCl2, 0.1 mg/ml BSA, 0.01% Tween 20 and 1 mM DTT in 100 mM HEPES buffer (pH7.4). 5 nM preactivated GST-TIE2 is incubated for 2 hours at room temperature in 96 well plates with 1 uM D1–15 peptide, 80 uM ATP, 10 mM MgCl2, 0.1 mg/ml BSA, 0.01% Tween 20 and titrated test compound (diluted from a 10 mM stock in DMSO, final DMSO concentration is 2.4%) in 100 mM HEPES (pH7.4). The reaction is stopped by the addition of EDTA (final concentration 45 mM). Streptavidin linked-APC (allophycocyanin, PerkinElmer) and europium-labeled anti-phosphotyrosine antibody (PerkinElmer) are then added at the final concentration of 8 nM and 1 nM, respectively. The APC signal is measured using an Wallac Multilabel 1420 counter. (Wallac Berthold Japan). The percent inhibition of activity is calculated relative to blank control wells. The concentration of test compound that inhibits 50% of activity (IC50) is interpolated using nonlinear regression (Levernberg-Marquardt) and the equation, y=Vmax (1−x/(K+x))+Y2, where “K” is equal to the IC50. The IC50 values are converted to pIC50 values, i.e., −log IC50 in Molar concentration.

For a further experiment, the target named is T2, GST-VEGFR2 (Homo sapiens, UniProt P35968).
T2 construct: GST-VEGFR2, baculovirus expressed recombinant constructs of the intracellular domains; made in house
The experiment in a line: VEGF-R2 Enzyme Assay (VEGF-E2), LANCE method. The note with it: for IC50: read-out: VEGFR2 PIC50 VEGFR-E2 assay.

The target in experiment [2] is T3, catalytic domain of human VEGFR3 (Homo sapiens, UniProt P35916, H890Q).
T3 construct: made in house; host or cells: Sf9 insect cells (baculovirus, pFastBac1)
As to the kind of experiment: VEGFR-3 Homogenous Time-Resolved Fluorescence Assay (VEGFR-3-HTRF). The note with it: for IC50: read-out: VEGFR3 PIC50 VEGFR-3-HTRF assay. An excerpt:
VEGFR—3-Homogenous Time-Resolved Fluorescence Assay (VEGFR-3-HTRF)
This assay assesses Vascular Endothelial Growth Factor 3 (VEGFR3) tyrosine kinase inhibitory activity in substrate phosphorylation assays. The assay examines the ability of small molecule organic compounds to inhibit the tyrosine phosphorylation of a peptide substrate.
The substrate phosphorylation assays use the VEGFR3 catalytic domain, which is expressed in Sf. 9 insect cells as an amino-terminal GST-tagged fusion protein. The catalytic domain of human VEGFR3 (AA residues #819–1298 based upon GenBank Accession #XM003852) is cloned by PCR from human Placenta Marathon Ready cDNA (Clontech). The PCR product is subcloned into pFastBac1 vector containing an N-terminal GST tag. The resulting pFB/GST/VEGFR3icd vector is used to generate a recombinant baculovirus for protein expression. The VEGFR3 catalytic domain translated sequence is:
Autophosphorylation allows enzymes to be fully activated prior to addition to peptide substrates. The assays are performed using enzyme that has been activated by autophosphorylation via preincubation in buffer with ATP and magnesium. Activated enzyme is then diluted and added to titrated compound and the substrate mix.
200 nM VEGFR3 enzyme is activated for 45 minutes at room temperature by incubating the enzyme in buffer containing 100 mM HEPES (pH7.2), 75 μM ATP, 0.3 mM DTT, 0.1 mg/mL BSA, and 10 mM MgCl2. After activation, VEGFR3 is diluted 100-fold into 2× dilution buffer: 200 mM HEPES (pH 7.5), 0.2 mg/mL BSA, 0.6 mM DTT. 20 μL of the diluted enzyme mix is added to 20 μL of 2× substrate mix (150 μM ATP, 20 mM MgCl2, 0.72 μM biotinylated peptide) in the assay plates. Final assay conditions are: 100 mM HEPES (pH 7.2), 75 μM ATP, 10 mM MgCl2, 0.1 mg/mL BSA, 0.3 mM DTT, 0.36 μM biotinylated peptide, and 1 nM VEGFR3 enzyme. Assay plates are incubated for 1.5 hours at room temperature before the addition of 30 μL 100 mM EDTA to the wells to stop the enzymatic reaction. 40 μL/well of HTRF mix are then added to the assay plates for the detection of phosphorylated substrate. Final assay concentrations are: 100 mM HEPES (pH7.2), 0.1 mg/mL BSA, 15 nM streptavidin-labeled allophycocyanin (PerkinElmer), and 1 nM europium-labeled anti-phosphotyrosine antibody (PerkinElmer). Assay plates are left unsealed and are counted in a Wallac Multilabel Counter 1420 (PerkinElmer).
The data for dose responses are plotted as % Control calculated with the data reduction formula 100*(U1–C2)/(C1–C2) versus concentration of compound where U is the unknown value, C1 is the average control value obtained for DMSO , and C2 is the average control value obtained for 0.1M EDTA. Data are fitted to the curve described by: y=((Vmax*x)/(K+x)) where Vmax is the upper asymptote and K is the IC50.

Some results are limits rather than exact numbers.

These results are taken from patent US7217710B2, “Substituted pyrazolopyrimidines” (SmithKline Beecham Corporation, priority 2001, dated 2007).

T1 sequence (Q02763 762-1104): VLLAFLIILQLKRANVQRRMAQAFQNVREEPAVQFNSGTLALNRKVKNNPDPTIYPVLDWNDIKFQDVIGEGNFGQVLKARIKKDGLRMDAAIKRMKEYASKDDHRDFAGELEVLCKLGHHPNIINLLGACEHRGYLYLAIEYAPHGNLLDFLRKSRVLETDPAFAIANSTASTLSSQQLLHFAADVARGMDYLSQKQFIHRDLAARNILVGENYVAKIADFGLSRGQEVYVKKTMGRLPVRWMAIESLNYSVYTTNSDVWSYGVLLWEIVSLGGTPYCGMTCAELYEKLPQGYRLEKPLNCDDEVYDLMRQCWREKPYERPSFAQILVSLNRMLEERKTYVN
T2 sequence (P35968 786-1356 limits assumed): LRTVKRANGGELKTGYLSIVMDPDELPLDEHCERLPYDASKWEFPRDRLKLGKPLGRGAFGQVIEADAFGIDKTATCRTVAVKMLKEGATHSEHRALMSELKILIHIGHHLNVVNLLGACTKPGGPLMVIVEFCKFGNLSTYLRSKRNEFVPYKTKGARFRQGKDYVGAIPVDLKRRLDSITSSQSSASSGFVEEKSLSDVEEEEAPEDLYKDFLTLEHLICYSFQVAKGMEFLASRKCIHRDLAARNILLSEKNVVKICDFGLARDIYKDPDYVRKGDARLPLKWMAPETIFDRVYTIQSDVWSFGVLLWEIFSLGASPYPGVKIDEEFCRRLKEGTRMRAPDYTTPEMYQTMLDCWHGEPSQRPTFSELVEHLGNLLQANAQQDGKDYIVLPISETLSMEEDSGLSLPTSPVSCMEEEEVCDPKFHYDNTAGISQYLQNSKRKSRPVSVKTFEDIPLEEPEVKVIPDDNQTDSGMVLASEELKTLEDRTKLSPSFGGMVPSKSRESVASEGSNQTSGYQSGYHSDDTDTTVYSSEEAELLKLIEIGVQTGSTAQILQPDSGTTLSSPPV
T3 sequence (P35916 with tags, fused parts or gaps isoform P35916-1 H890Q): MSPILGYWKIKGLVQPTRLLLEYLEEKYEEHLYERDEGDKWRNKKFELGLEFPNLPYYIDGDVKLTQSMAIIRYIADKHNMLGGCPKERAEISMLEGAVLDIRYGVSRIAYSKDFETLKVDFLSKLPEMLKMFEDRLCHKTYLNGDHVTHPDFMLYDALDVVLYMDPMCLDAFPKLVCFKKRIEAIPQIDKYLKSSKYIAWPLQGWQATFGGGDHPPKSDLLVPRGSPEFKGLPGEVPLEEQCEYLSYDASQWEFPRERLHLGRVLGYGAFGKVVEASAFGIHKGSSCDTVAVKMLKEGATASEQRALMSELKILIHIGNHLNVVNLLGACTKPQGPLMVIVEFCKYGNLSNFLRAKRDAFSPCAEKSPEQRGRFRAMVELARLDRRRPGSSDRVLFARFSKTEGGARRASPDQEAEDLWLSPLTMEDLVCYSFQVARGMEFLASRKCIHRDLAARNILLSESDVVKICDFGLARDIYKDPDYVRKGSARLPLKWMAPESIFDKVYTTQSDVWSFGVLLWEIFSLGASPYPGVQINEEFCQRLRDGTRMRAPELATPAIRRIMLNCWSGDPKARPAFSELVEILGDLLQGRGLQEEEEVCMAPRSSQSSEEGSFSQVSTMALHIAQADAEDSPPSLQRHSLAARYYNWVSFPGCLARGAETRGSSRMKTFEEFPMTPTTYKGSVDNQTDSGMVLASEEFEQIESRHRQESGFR

Take `Cn1nc(-c2ccc(NS(=O)(=O)c3cccc(Cl)c3Cl)cc2)c2cnc(NCCCO)nc21` [Example 112, 2,3-Dichloro-N-{4-[1-methyl-6-(3-hydroxy-propylamino)-1H-pyrazolo[3,4-d]pyrimidin-3-yl]-phenyl}-benzenesulfonamide]: the IC50 was more than 10000 nM in experiment [1], 1000 to 10000 nM on GST-VEGFR2 and 1000 to 10000 nM in experiment [2].

Turning to `Cn1nc(-c2ccc(NS(=O)(=O)c3cccc(Cl)c3Cl)cc2)c2cnc(NCCCCCO)nc21` [Example 114, 2,3-Dichloro-N-{4-[1-methyl-6-(5-hydroxy-pentylamino)-1H-pyrazolo[3,4-d]pyrimidin-3-yl]-phenyl}-benzenesulfonamide], the IC50 (in experiment [1]; on GST-VEGFR2; in experiment [2]) was 1000 to 10000 nM throughout.

In the case of `CC(=O)NCCNc1ncc2c(-c3ccc(NC(=O)Nc4cc(C(F)(F)F)ccc4F)cc3)nn(C)c2n1` [Example 98], the IC50 in experiment [1] is not above 39.8 nM; on GST-VEGFR2, 1000 to 10000 nM; in experiment [2] it was more than 10000 nM.

For `Cn1cccc1CCNc1ncc2c(-c3ccc(NC(=O)Nc4cc(C(F)(F)F)ccc4F)cc3)nn(C)c2n1` [Example 101, 1-(2-Fluoro-5-trifluoromethyl-phenyl)-3-{4-[1-methyl-6-(2-[1-methyl-1H-pyrrol-2-yl]-ethylamino)-1H-pyrazolo[3,4-d]pyrimidin-3-yl]-phenyl} urea], the figures for the IC50 (in experiment [1]; on GST-VEGFR2; in experiment [2]) were not above 39.8 nM, 1000 to 10000 nM and 1000 to 10000 nM, respectively.

For the compound `Cn1nc(-c2ccc(NS(=O)(=O)c3cccc(Cl)c3Cl)cc2)c2cnc(NCCN3CCNC3=O)nc21` [Example 109, 2,3-Dichloro-N-(4-{1-methyl-6-[2-(2-oxo-imidazolidin-1-yl)-ethylamino]-1H-pyrazolo[3,4-d]pyrimidin-3-yl]-phenyl}-benzenesulfonamide], the IC50 is more than 10000 nM in experiment [1], 1000 to 10000 nM on GST-VEGFR2 and 100 to 1000 nM in experiment [2].

As for `Cn1nc(-c2ccc(NC(=O)Nc3cc(C(F)(F)F)ccc3F)cc2)c2cnc(NCCCCCO)nc21` [Example 82], the IC50 in experiment [1] is 39.8 to 100 nM; on GST-VEGFR2, more than 10000 nM; in experiment [2], more than 10000 nM.

On to `Cn1nc(-c2ccc(NC(=O)Nc3cc(C(F)(F)F)ccc3F)cc2)c2cnc(NCCN3CCOCC3)nc21` [Example 31, 1-(2-Fluoro-5-trifluoromethyl-phenyl)-3-{4-[1-methyl-6-(2-morpholin-4-yl-ethylamino)-1H-pyrazolo[3,4-d]pyrimidin-3-yl]-phenyl}urea], for which the IC50 fell in the range of 39.8 to 100 nM in experiment [1], 1000 to 10000 nM at GST-VEGFR2 and 1000 to 10000 nM in experiment [2].

Turning to `COCCNc1ncc2c(-c3ccc(NC(=O)Nc4cc(C(F)(F)F)ccc4F)cc3)nn(C)c2n1` [Example 32], the “TIE2 PIC50 TIE2-E2 assay” value in experiment [1] was “+++ (+++ = PIC50 = 7.00 to less than 7.40)”. For the same compound, the “VEGFR2 PIC50 VEGFR-E2 assay” value at GST-VEGFR2 is given as “+ (+ = PIC50 = 5.00 to less than 6.00)”. Also, in experiment [2], the “VEGFR3 PIC50 VEGFR-3-HTRF assay” value is given as “+ (+ = PIC50 = 5.00 to less than 6.00)”.

`Cn1nc(-c2ccc(NC(=O)Nc3cc(C(F)(F)F)ccc3F)cc2)c2cnc(NCc3ccncc3)nc21` [Example 143, 1-(2-Fluoro-5-trifluoromethyl-phenyl)-3-{4-[(1-methyl-6-(pyridin-4-ylmethyl)-amino)-1H-pyrazolo[3,4-d]pyrimidin-3-yl]-phenyl} urea]: the IC50 in experiment [1] is 100 to 1000 nM; on GST-VEGFR2 it was 1000 to 10000 nM; in experiment [2] it was more than 10000 nM.

`CC(C)n1nc(-c2ccc(NS(=O)(=O)c3cccc(Cl)c3Cl)cc2)c2cnc(NCCN3CCOCC3)nc21` [Example 77, 2,3-Dichloro-N-{4-(1-isopropyl-6-(2-morpholin-4-yl-ether)-1H -pyrazolo[3,4-d]pyrimidin-3-yl}-phenyl}-benzenesulfonamide]: the figures for the IC50 (in experiment [1]; on GST-VEGFR2; in experiment [2]) were 100 to 1000 nM, 1000 to 10000 nM and 1000 to 10000 nM, respectively.

As for `Cc1cc(-c2nn(C)c3nc(NCCN4CCOCC4)ncc23)ccc1NC(=O)Nc1ccc2ccccc2c1` [Example 46, 1-{2-Methyl-4-[1-methyl-6-(2-morpholin-4-yl-ethylamino)-1H -pyrazolo[3,4-d]pyrimidin-3-yl]-phenyl}-3-naphthalen-2-yl-urea], the IC50 is 100 to 1000 nM in experiment [1] and more than 10000 nM on GST-VEGFR2.

For `Cn1nc(-c2ccc(NC(=O)Nc3cc(C(F)(F)F)ccc3F)cc2)c2cnc(NCCCNS(C)(=O)=O)nc21` [Example 96, N-[3-(3-{4-[3-(2-Fluoro-5-trifluoromethyl-phenyl)-ureido]-phenyl}-1-methyl-1H-pyrazolo[3,4-d]pyrimidin-6-ylamino)-propyl]-methanesulfonamide], the IC50 is 39.8 to 100 nM in experiment [1], 1000 to 10000 nM on GST-VEGFR2 and 1000 to 10000 nM in experiment [2].

For the compound “1-(Chloro-trifluoromethyl-phenyl)-3-{4-[methyl-(2-morpholin-4-yl -ethylamino)-1H-pyrazolo[3,4-d]pyrimidin-3-yl]-phenyl}-urea [Example 37]”, the “TIE2 PIC50 TIE2-E2 assay” value in experiment [1] is listed as “+++ (+++ = PIC50 = 7.00 to less than 7.40)”. Besides, on GST-VEGFR2, the “VEGFR2 PIC50 VEGFR-E2 assay” value was “−− (−− = PIC50 less than 5.00)”. In addition, the “VEGFR3 PIC50 VEGFR-3-HTRF assay” value in experiment [2] is given as “+ (+ = PIC50 = 5.00 to less than 6.00)”.

In the case of `CC(=O)Nc1ncc2c(-c3ccc(NC(=O)Nc4cc(C(F)(F)F)ccc4F)cc3)nn(C)c2n1` [Example 70], the IC50 lay in the range of 100 to 1000 nM in experiment [1] and 1000 to 10000 nM on GST-VEGFR2.

In the case of `CN(CCN1CCOCC1)c1ncnc2[nH]nc(-c3ccc(NC(=O)Nc4cc(C(F)(F)F)ccc4F)c(C(F)(F)F)c3)c12` [Example 56, 1-(2-Fluoro-5-trifluoromethyl-phenyl)-3-{[methyl-(2-morpholin-4-yl-ethylamino)-1H-pyrazolo[3,4-d]pyrimidin-3-yl]-(2-trifluoromethyl-phenyl)}-urea], the “TIE2 PIC50 TIE2-E2 assay” value in experiment [1] is given as “+ (+ = PIC50 = 5.00 to less than 6.00)”. Also, the “VEGFR2 PIC50 VEGFR-E2 assay” value at GST-VEGFR2 was “+ (+ = PIC50 = 5.00 to less than 6.00)”.

As to `Cn1nc(-c2ccc(NC(=O)Nc3ccc4ccccc4c3)c(F)c2)c2cnc(NCCN3CCOCC3)nc21` [Example 55], the IC50 in experiment [1] is 100 to 1000 nM; on GST-VEGFR2 it was more than 10000 nM.

For the compound `Cn1nc(-c2ccc(NC(=O)Nc3cc(C(F)(F)F)cc(C(F)(F)F)c3)cc2)c2cnc(NCCN3CCOCC3)nc21` [Example 41, 1-(Bis-trifluoromethyl-phenyl)-3-{4-[1-methyl-6-(2-morpholin-4-yl-ethylamino)-1H-pyrazolo[3,4-d]pyrimidin-3-yl]-phenyl}-urea], the “TIE2 PIC50 TIE2-E2 assay” value in experiment [1] was “++ (++ = PIC50 = 6.00 to less than 7.00)”. Moreover, the “VEGFR2 PIC50 VEGFR-E2 assay” value at GST-VEGFR2 is “−− (−− = PIC50 less than 5.00)”.
